From patent US20260242416A1, “ANTIMICROBIAL PEPTIDES” (priority 2023, published 2026)
Where a SMILES comes first, the peptide text is derived from it.

Tested on: E. coli ATCC 25922, Salmonella Enteritidis, S. aureus ATCC 29213
Assay: Broth microdilution, panel result (at least one / all strains), Example 2
Type: cell-based
Set-up: key to inhibitory activity (asterisk): *Indicates inhibitory activity
Conditions: for inhibitory activity (asterisk): Table 14, against at least one of E. coli ATCC 25922, Salmonella Enteritidis, S. aureus ATCC 29213
Procedure: The antimicrobial activity of the putative AMPs was determined by a broth microdilution assay as described by the Clinical and Laboratory Standards Institute, with the published adaptations for testing of cationic peptides. Escherichia coli 25922 and Staphylococcus aureus 29213 isolates were purchased from the American Type Culture Collection (ATCC; Manassas, VA, USA). A human clinical isolate of Salmonella enterica serovar Enteritidis was provided by the BC Centre for Disease Control. Bacteria from stocks stored at −80° C. were streaked onto nonselective Columbia blood agar with 5% sheep blood (Oxoid) and incubated overnight at 37° C. Next, 2-4 colonies were streaked onto a new agar plate to ensure uniform health of colonies used in the broth microdilution assay. Isolated colonies were suspended in MHB and the optical density was measured with a spectrophotometer to create an initial inoculum concentration of approximately 1×10^8 cfu/mL. The inoculum was diluted 1:250 to a final concentration of 2-8×10^5 cfu/mL, which was confirmed by performing a Total Viability Count (TVC). The TVC consisted of plating a 1:1000 dilution of the final inoculum on nonselective media and was also used to confirm the health and purity of the inoculum in each trial.
Lyophilized 80 μg peptide aliquots synthesized by GenScript (Piscataway, NJ, USA) were resuspended to 1.28 mg/mL with UltraPure water (Thermo Fisher Scientific, Waltham, MA, USA) and serially diluted in polypropylene 96-well microtiter plates (Greiner Bio-One #650261, Kremsmunster, Austria) from 128 down to 0.5 μg/mL. Two columns per plate were reserved for growth and sterility controls. Inoculum was added to the wells containing the peptide and the growth control. Plates were incubated for 20-24 h at 37° C. The minimum inhibitory concentration (MIC) was determined as the lowest peptide concentration where there was no visible bacterial growth.

SMILES	inhibitory activity (asterisk)	spectrum of antimicrobial activity (panel of E. coli, Salmonella Enteritidis, S. aureus, up to 128 μg/mL)
CC[C@H](C)[C@H](NC(=O)[C@H](C)NC(=O)[C@H](CCCNC(=N)N)NC(=O)[C@@H](N)CCCNC(=N)N)C(=O)N[C@@H](Cc1ccccc1)C(=O)N[C@@H](C)C(=O)N[C@@H](CO)C(=O)N[C@H](C(=O)N[C@@H](CCCNC(=N)N)C(=O)NCC(=O)N[C@@H](Cc1ccc(O)cc1)C(=O)N[C@@H](CC(C)C)C(=O)NCC(=O)N[C@@H](CC(C)C)C(=O)N[C@@H](CCCNC(=N)N)C(=O)N[C@@H](CCCCN)C(=O)N[C@@H](CCCNC(=N)N)C(=O)O)[C@@H](C)CC [MyGu1, RRAIFASIRGYLGLRKR] (H-RRAIFASIRGYLGLRKR-OH; N-terminus and C-terminus assumed)	881.* RRAIFASIRGYLGLRKR	–
CC[C@H](C)[C@H](NC(=O)CN)C(=O)N[C@@H](CC(C)C)C(=O)N[C@@H](CC(C)C)C(=O)N[C@@H](CC(N)=O)C(=O)N[C@H](C(=O)N[C@@H](CC(C)C)C(=O)N[C@@H](CCCCN)C(=O)NCC(=O)N[C@@H](C)C(=O)N[C@@H](C)C(=O)N[C@@H](CCCCN)C(=O)N[C@@H](CC(N)=O)C(=O)N[C@H](C(=O)N[C@@H](C)C(=O)NCC(=O)N[C@H](C(=O)N[C@@H](CC(C)C)C(=O)N[C@@H](CC(C)C)C(=O)N[C@@H](CC(=O)O)C(=O)N[C@@H](CCCCN)C(=O)N[C@@H](CC(C)C)C(=O)N[C@@H](CCCCN)C(=O)N[C@@H](CS)C(=O)N[C@@H](CCCCN)C(=O)N[C@H](C(=O)N[C@H](C(=O)NCC(=O)NCC(=O)N[C@@H](CS)C(=O)O)[C@@H](C)O)[C@@H](C)CC)C(C)C)C(C)C)[C@@H](C)O [PeNi8] (H-GILLNTLKGAAKNVAGVLLDKLKCKITGGC-OH; N-terminus and C-terminus assumed)	1097.* GILLNTLKGAAKNVAGVLLDKLKCKITGGC	–
CC[C@H](C)[C@H](NC(=O)CN)C(=O)N[C@@H](CC(C)C)C(=O)N[C@@H](CCCNC(=N)N)C(=O)N[C@@H](CC(C)C)C(=O)N[C@H](C(=O)N[C@H](C(=O)N[C@@H](CCCNC(=N)N)C(=O)N[C@@H](CCCNC(=N)N)C(=O)N[C@@H](Cc1ccccc1)C(=O)N[C@@H](CCCNC(=N)N)C(=O)N[C@@H](Cc1ccccc1)C(=O)N[C@@H](CO)C(=O)N1CCC[C@H]1C(=O)N[C@H](C(=O)N[C@@H](CC(N)=O)C(=O)N[C@@H](CC(C)C)C(=O)N[C@@H](CC(N)=O)C(=O)N[C@@H](CCCNC(=N)N)C(=O)N[C@@H](Cc1ccc(O)cc1)C(=O)N[C@H](C(=O)N[C@H](C(=O)N[C@@H](C)C(=O)N[C@@H](CCCNC(=N)N)C(=O)N[C@@H](CC(C)C)C(=O)N[C@H](C(=O)N[C@@H](CO)C(=O)NCC(=O)N[C@H](C(=O)N1CCC[C@H]1C(=O)O)C(C)C)C(C)C)C(C)C)[C@@H](C)O)[C@@H](C)O)[C@@H](C)O)C(C)C [BoAr6] (H-GILRLVTRRFRFSPTNLNRYTVARLVSGVP-OH; N-terminus and C-terminus assumed)	790.* GILRLVTRRFRFSPTNLNRYTVARLVSGVP	–
CC[C@H](C)[C@H](NC(=O)[C@H](CO)NC(=O)[C@@H]1CCCN1C(=O)[C@H](CC(C)C)NC(=O)[C@@H](NC(=O)[C@H](CCCCN)NC(=O)[C@H](C)NC(=O)[C@H](C)NC(=O)[C@H](CC(C)C)NC(=O)CNC(=O)[C@H](C)NC(=O)[C@@H](NC(=O)[C@@H](NC(=O)[C@@H]1CCCN1C(=O)[C@H](CC(C)C)NC(=O)[C@@H](N)Cc1ccccc1)C(C)C)C(C)C)C(C)C)C(=O)N[C@H](C(=O)N[C@@H](CS)C(=O)N[C@@H](C)C(=O)N[C@H](C(=O)N[C@H](C(=O)N[C@@H](CCCCN)C(=O)N[C@@H](CCCCN)C(=O)N[C@@H](CS)C(=O)O)[C@@H](C)O)C(C)C)[C@@H](C)CC [RaCa15] (H-FLPVVAGLAAKVLPSIICAVTKKC-OH; N-terminus and C-terminus assumed)	1098.* FLPVVAGLAAKVLPSIICAVTKKC	–
CC[C@H](C)[C@H](NC(=O)[C@H](CCCCN)NC(=O)[C@H](CS)NC(=O)[C@H](CCCCN)NC(=O)[C@H](CC(C)C)NC(=O)[C@H](CC(N)=O)NC(=O)[C@H](CC(=O)O)NC(=O)[C@H](CC(C)C)NC(=O)[C@H](CC(C)C)NC(=O)[C@@H](NC(=O)[C@@H](NC(=O)[C@H](C)NC(=O)[C@@H](NC(=O)[C@H](CC(N)=O)NC(=O)[C@H](CCCCN)NC(=O)[C@H](C)NC(=O)[C@@H](NC(=O)[C@H](CC(N)=O)NC(=O)[C@H](CCCCN)NC(=O)[C@H](C)NC(=O)[C@@H](NC(=O)[C@H](CC(=O)O)NC(=O)[C@H](CCSC)NC(=O)[C@H](Cc1ccccc1)NC(=O)CN)[C@@H](C)O)C(C)C)C(C)C)C(C)C)[C@@H](C)O)C(=O)N[C@H](C(=O)N[C@@H](CCCCN)C(=O)N[C@@H](C)C(=O)N[C@@H](CS)C(=O)O)[C@@H](C)O [OdMa13] (H-GFMDTAKNVAKNVAVTLLDNLKCKITKAC-OH; N-terminus and C-terminus assumed)	1095.* GFMDTAKNVAKNVAVTLLDNLKCKITKAC	–
CC[C@H](C)[C@H](NC(=O)CN)C(=O)N[C@@H](Cc1ccc(O)cc1)C(=O)N[C@H](C(=O)NCC(=O)N[C@@H](CCCNC(=N)N)C(=O)N[C@@H](CC(C)C)C(=O)N[C@@H](CC(C)C)C(=O)N1CCC[C@H]1C(=O)N[C@H](C(=O)N[C@@H](Cc1ccc(O)cc1)C(=O)N[C@H](C(=O)N1CCC[C@H]1C(=O)N[C@@H](CCC(N)=O)C(=O)N1CCC[C@H]1C(=O)N[C@@H](CCCNC(=N)N)C(=O)N1CCC[C@H]1C(=O)N1CCC[C@H]1C(=O)N[C@@H](Cc1c[nH]cn1)C(=O)N1CCC[C@H]1C(=O)N[C@@H](CCCNC(=N)N)C(=O)N[C@@H](CC(C)C)C(=O)N[C@@H](CCCNC(=N)N)C(=O)N[C@@H](CCCNC(=N)N)C(=O)O)[C@@H](C)CC)C(C)C)[C@@H](C)O [ApCe1] (H-GIYTGRLLPVYIPQPRPPHPRLRR-OH; N-terminus and C-terminus assumed)	695.* GIYTGRLLPVYIPQPRPPHPRLRR	antimicrobial activity against Gram-negative bacterial species but not Gram-positives
CC[C@H](C)[C@H](NC(=O)[C@H](CCCCN)NC(=O)[C@H](CS)NC(=O)[C@H](Cc1ccccc1)NC(=O)[C@H](CCCCN)NC(=O)[C@H](CCCNC(=N)N)NC(=O)[C@H](CO)NC(=O)[C@H](Cc1ccc(O)cc1)NC(=O)CNC(=O)[C@H](CS)NC(=O)[C@@H]1CCCN1C(=O)[C@H](C)NC(=O)[C@@H](NC(=O)[C@H](C)NC(=O)[C@H](Cc1ccccc1)NC(=O)[C@H](Cc1ccccc1)NC(=O)[C@H](Cc1ccccc1)NC(=O)[C@H](CCCNC(=N)N)NC(=O)[C@@H](N)CCCNC(=N)N)[C@@H](C)O)C(=O)N[C@H](C(=O)N[C@@H](CCCNC(=N)N)C(=O)N[C@@H](CCCNC(=N)N)C(=O)N[C@@H](CCCCN)C(=O)N[C@@H](CCCNC(=N)N)C(=O)O)[C@@H](C)O [CaCa4] (H-RRFFFATAPCGYSRKFCKITRRKR-OH; N-terminus and C-terminus assumed)	816.* RRFFFATAPCGYSRKFCKITRRKR	–
CC[C@H](C)[C@H](NC(=O)[C@@H](N)Cc1ccccc1)C(=O)N[C@@H](CCCCN)C(=O)N[C@H](C(=O)N[C@@H](CCC(N)=O)C(=O)N[C@H](C(=O)N[C@@H](CC(C)C)C(=O)N[C@@H](CCCCN)C(=O)N[C@@H](Cc1c[nH]cn1)C(=O)N[C@@H](CC(C)C)C(=O)N[C@H](C(=O)N[C@@H](C)C(=O)NCC(=O)N[C@H](C(=O)N[C@@H](CCCNC(=N)N)C(=O)N[C@H](C(=O)N[C@@H](C)C(=O)N[C@@H](CCCNC(=N)N)C(=O)NCC(=O)N[C@@H](CC(C)C)C(=O)N[C@@H](CC(=O)O)C(=O)N[C@@H](Cc1c[nH]c2ccccc12)C(=O)N[C@@H](CCCCN)C(=O)N[C@@H](Cc1c[nH]c2ccccc12)C(=O)N[C@@H](CCCNC(=N)N)C(=O)O)C(C)C)C(C)C)C(C)C)C(C)C)[C@@H](C)O [CaCa2] (H-FIKTQVLKHLVAGVRVARGLDWKWR-OH; N-terminus and C-terminus assumed)	819.* FIKTQVLKHLVAGVRVARGLDWKWR	–
CC[C@H](C)[C@H](NC(=O)CNC(=O)[C@H](CCCNC(=N)N)NC(=O)[C@H](CCCCN)NC(=O)[C@H](CCCCN)NC(=O)[C@H](CCCNC(=N)N)NC(=O)[C@@H]1CCCN1C(=O)[C@@H](NC(=O)[C@H](CCSC)NC(=O)[C@H](CC(C)C)NC(=O)[C@@H](N)CCCCN)[C@@H](C)CC)C(=O)N[C@@H](Cc1ccccc1)C(=O)NCC(=O)NCC(=O)N[C@@H](CC(C)C)C(=O)N[C@@H](CC(C)C)C(=O)N[C@@H](CCCCN)C(=O)N[C@H](C(=O)NCC(=O)N[C@@H](CCCCN)C(=O)N[C@@H](CCCCN)C(=O)N[C@H](C(=O)N[C@@H](C)C(=O)N[C@@H](CS)C(=O)NCC(=O)N[C@@H](CC(C)C)C(=O)N[C@@H](CO)C(=O)NCC(=O)N[C@@H](CC(C)C)C(=O)N[C@@H](CS)C(=O)O)[C@@H](C)CC)C(C)C [OdTo4] (H-KLMIPRKKRGIFGGLLKVGKKIACGLSGLC-OH; N-terminus and C-terminus assumed)	190.* KLMIPRKKRGIFGGLLKVGKKIACGLSGLC	–
